Source: the RepoRT retention time repository (doi:10.1016/j.jchromb.2020.122105)

Tests used:
Settings in all cases: stereoisomer not certain
[1] = RP, Waters ACQUITY UPLC BEH C18, 100 × 2.1 mm, 1.7 µm, 0.1 mL/min, estimated dead time 2.2 min; A: water + 0.1% formic acid, pH 3; B: methanol + 0.1% formic acid, pH 3; gradient (min/%B) 0/5 5/5 25/95 25.1/100 35/100 35.1/5 45/5
[2] = RP, Waters CORTECS T3, 100 × 2.1 mm, 2.7 µm, 0.2 mL/min, estimated dead time 1.1 min; A: water + 0.1% formic acid, pH 3; B: methanol + 0.1% formic acid, pH 3; gradient (min/%B) 0/0 1/0 6/5 30/100 35/100 35.1/0 40/0
[3] = RP, Waters CORTECS T3, 100 × 2.1 mm, 2.7 µm, 0.1 mL/min, estimated dead time 2.2 min; A: water + 0.1% formic acid, pH 3; B: methanol + 0.1% formic acid, pH 3; gradient (min/%B) 0/0 1/0 6/5 30/100 35/100 35.1/0 40/0
[4] = HILIC, Thermo Scientific Accucore HILIC, 100 × 2.1 mm, 2.6 µm, 0.5 mL/min, estimated dead time 0.44 min; A: water + 0.1% formic acid + 10 mM ammonium formate, pH 3; B: 5% water + 95% acetonitrile + 0.1% formic acid + 10 mM ammonium formate, pH 3; gradient (min/%B) 0/95 5/95 20/57 25/57 30/95 40/95
[5] = RP, Waters CORTECS T3, 100 × 2.1 mm, 2.7 µm, 0.15 mL/min, estimated dead time 1.5 min; A: water + 0.1% formic acid, pH 3; B: methanol + 0.1% formic acid, pH 3; gradient (min/%B) 0/0 1/0 6/5 30/100 35/100 35.1/0 40/0
[6] = RP, Waters CORTECS T3, 100 × 2.1 mm, 2.7 µm, 0.3 mL/min, estimated dead time 0.73 min; A: water + 0.1% formic acid, pH 3; B: methanol + 0.1% formic acid, pH 3; gradient (min/%B) 0/0 1/0 6/5 30/100 35/100 35.1/0 40/0
[7] = RP, Waters CORTECS T3, 100 × 2.1 mm, 2.7 µm, 0.3 mL/min, estimated dead time 0.73 min; A: water + 0.1% formic acid, pH 3; B: methanol + 0.1% formic acid, pH 3; gradient (min/%B) 0/0 5/0 25/100 30/100 30.1/0 35/0
[8] = RP, Waters CORTECS T3, 100 × 2.1 mm, 2.7 µm, 0.3 mL/min, estimated dead time 0.73 min; A: water + 0.1% formic acid, pH 3; B: methanol + 0.1% formic acid, pH 3; gradient (min/%B) 0/5 5/5 25/100 30/100 30.1/5 35/5
[9] = RP, Waters ACQUITY UPLC BEH C18, 100 × 2.1 mm, 1.7 µm, 0.2 mL/min, estimated dead time 1.1 min; A: water + 0.025% formic acid + 20 mM ammonium acetate + 0.055% ammonium hydroxide, pH 7; B: methanol; gradient (min/%B) 0/5 5/5 25/100 30/100 30.1/5 35/5
[10] = RP, Waters CORTECS T3, 100 × 2.1 mm, 2.7 µm, 0.2 mL/min, estimated dead time 1.1 min; A: water + 0.1% formic acid, pH 3; B: methanol + 0.1% formic acid, pH 3; gradient (min/%B) 0/0 1/0 6/5 30/100 35/100 35.1/0 40/0; remark: listed apart in the source
[11] = RP, Waters ACQUITY UPLC BEH C18, 100 × 2.1 mm, 1.7 µm, 0.1 mL/min, estimated dead time 2.2 min; A: water + 0.045% formic acid + 0.11% ammonium hydroxide, pH 7; B: methanol; gradient (min/%B) 0/5 5/5 25/95 25.1/100 35/100 35.1/5 45/5
[12] = RP, Waters ACQUITY UPLC BEH C18, 100 × 2.1 mm, 1.7 µm, 0.1 mL/min, estimated dead time 2.2 min; A: water + 0.1% formic acid, pH 3; B: methanol + 0.1% formic acid, pH 3; gradient (min/%B) 0/5 5/5 25/95 25.1/100 35/100 35.1/5 45/5; remark: listed apart in the source
[13] = RP, Waters CORTECS T3, 100 × 2.1 mm, 2.7 µm, 0.25 mL/min, estimated dead time 0.88 min; A: water + 0.1% formic acid, pH 3; B: methanol + 0.1% formic acid, pH 3; gradient (min/%B) 0/5 5/5 25/95 25.1/100 35/100 35.1/5 45/5
[14] = RP, Waters CORTECS T3, 100 × 2.1 mm, 2.7 µm, 0.2 mL/min, estimated dead time 1.1 min; A: water + 0.1% formic acid, pH 3; B: methanol + 0.1% formic acid, pH 3; gradient (min/%B) 0/5 5/5 25/95 25.1/100 35/100 35.1/5 45/5
[15] = RP, Waters CORTECS T3, 100 × 2.1 mm, 2.7 µm, 0.3 mL/min, estimated dead time 0.73 min; A: water + 0.1% formic acid, pH 3; B: methanol + 0.1% formic acid, pH 3; gradient (min/%B) 0/0 1/0 6/5 30/100 35/100 35.1/0 40/0; remark: listed apart in the source
[16] = HILIC, Merck SeQuant ZIC-HILIC, 150 × 2.1 mm, 5 µm, 0.75 mL/min, estimated dead time 0.44 min; A: water + 0.1% acetic acid + 10 mM ammonium acetate, pH 4; B: 5% water + 95% acetonitrile + 0.1% acetic acid + 10 mM ammonium acetate, pH 4; gradient (min/%B) 0/95 5/95 20/57 25/57 30/95 40/95
[17] = RP, Waters ACQUITY UPLC BEH C18, 100 × 2.1 mm, 1.7 µm, 0.1 mL/min, estimated dead time 2.2 min; A: water + 0.1% formic acid, pH 3; B: methanol + 0.1% formic acid, pH 3; gradient (min/%B) 0/5 5/5 25/95 25.1/100 35/100 35.1/5 45/5; remark: listed apart in the source

Row | SMILES | LC retention time [1] [min] | LC retention time [2] [min] | LC retention time [3] [min] | LC retention time [4] [min] | LC retention time [5] [min] | LC retention time [6] [min] | LC retention time [7] [min] | LC retention time [8] [min] | LC retention time [9] [min] | LC retention time [10] [min] | LC retention time [11] [min] | LC retention time [12] [min] | LC retention time [13] [min] | LC retention time [14] [min] | LC retention time [15] [min] | LC retention time [16] [min] | LC retention time [17] [min]
1 | N[C@@H](Cc1cc(I)c(Oc2ccc(O)cc2)c(I)c1)C(=O)O [3,5-DIIODO-L-THYRONINE] | 20.2 | 19.3 | 17.1 | 8.63 | 20.4 | 18 | 16.1 | 15.5 | 15.8 | 19.2 | 20.4 | 20.2 | 16.4 | 22.3 | 18 |  | 
2 | O=C(O)c1cc(=O)c2ccccc2[nH]1 [4-HYDROXY-2-QUINOLINECARBOXYLIC ACID] | 14.3 | 12.2 | 10.7 | 6.71 | 13.6 | 10.7 | 10.5 | 9.17 | 5.96 | 12.3 | 11.7 | 14.3 | 9.94 | 15.8 | 10.8 |  | 
3 | CC(C)(CO)C(O)C(=O)NCCC(=O)O [D-PANTOTHENIC ACID] |  | 9.51 | 7.4 | 4.93 | 10.9 | 7.94 | 8.53 | 5.2 | 1.46 | 9.6 |  |  | 6.32 | 13 | 8.1 | 9.3 | 11.6
4 | CC1NC(=O)NC1CCCCCC(=O)O (centres undefined) [DETHIOBIOTIN] |  | 15.7 | 13.9 |  | 16.9 | 14.3 | 13.2 | 12.4 | 8.17 | 15.7 | 12.5 |  | 13.2 | 19 | 14.3 |  | 17.2
5 | CC(C)=CCNc1ncnc2nc[nH]c12 [N6-(DELTA2-ISOPENTENYL)-ADENINE] | 17.3 | 15 | 13.4 | 0.92 | 16.5 | 13.6 | 12.7 | 11.8 | 15.4 | 15.1 | 20.6 | 17.3 | 12.6 | 18.8 | 13.6 | 0.62 | 17.2
